Measurements published in patent publication US9765092B2, “Tricyclic piperidine compounds” (ACTELION PHARMACEUTICALS LTD, priority 2013, dated 2017).

Target: human TPH1 (Homo sapiens (Human), UniProt P17752)
Experiment: Biochemical in vitro assay using fluorescence readout (TPH1 inhibition)
[1] = human TPH1, fluorescence readout

Chain of human TPH1 (P17752 whole entry): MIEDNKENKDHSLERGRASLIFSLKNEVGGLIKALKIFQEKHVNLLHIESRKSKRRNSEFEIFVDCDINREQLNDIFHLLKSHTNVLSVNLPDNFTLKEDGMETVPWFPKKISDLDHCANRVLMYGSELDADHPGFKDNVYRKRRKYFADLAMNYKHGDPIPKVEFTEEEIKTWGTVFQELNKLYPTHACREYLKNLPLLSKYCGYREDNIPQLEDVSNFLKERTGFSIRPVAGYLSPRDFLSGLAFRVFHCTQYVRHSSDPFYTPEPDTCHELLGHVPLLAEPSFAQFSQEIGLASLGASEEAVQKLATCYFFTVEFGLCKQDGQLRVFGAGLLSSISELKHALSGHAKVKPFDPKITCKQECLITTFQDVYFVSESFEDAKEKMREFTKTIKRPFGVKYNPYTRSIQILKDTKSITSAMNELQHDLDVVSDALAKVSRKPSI

## Cc1nn2c3c(nc2s1)CCN(C(=O)COc1ccc(N2CC(F)(F)C2)nc1Cl)C3c1cc(C(=O)N(C)C)cs1 (stereo not shown) [Example 1.9.2, 5-(6-(2-((2-Chloro-6-(3,3-difluoroazetidin-1-yl)pyridin-3-yl)oxy)acetyl)-2-methyl-5,6,7,8-tetrahydro-[1,3,4]thiadiazolo[2′,3′:2,3]imidazo[4,5-c]pyridin-5-yl)-N,N-dimethylthiophene-3-carboxamide]
Full length human TPH1, 40 μM L-tryptophan, 15° C., 60 minutes, fluorescence at 540 nm, mean if determined several times
  IC50: 0.032 µM

## Cc1nn2c3c(nc2s1)CCN(C(=O)COc1ccc(NS(=O)(=O)N(C)C)nc1Cl)C3c1ccc(Cl)cc1F (stereo not shown) [Example 1.4.50, N-(6-chloro-5-(2-(5-(4-chloro-2-fluorophenyl)-2-methyl-7,8-dihydro-[1,3,4]thiadiazolo[2′,3′:2,3]imidazo[4,5-c]pyridin-6(5H)-yl)-2-oxoethoxy)pyridin-2-yl)-N′,N′-dimethyl-sulfamide]
[1]
  IC50: 0.078 µM

## Cc1cnc([C@H]2c3c(nc4sc(C)nn34)CCN2C(=O)COc2ccc(C3(N(C)C)CC3)nc2Cl)c(F)c1 [Example 1.31.12, (R)-2-((2-chloro-6-(1-(dimethylamino)cyclopropyl)pyridin-3-yl)oxy)-1-(5-(3-fluoro-5-methylpyridin-2-yl)-2-methyl-7,8-dihydro-[1,3,4]thiadiazolo[2′,3′:2,3]imidazo[4,5-c]pyridin-6(5H)-yl)ethanone]
[1]
  IC50: 0.217 µM

## CCc1nc(C)ccc1OCC(=O)N1CCc2nc3sccn3c2C1c1ccc(C(F)(F)F)cc1F (stereo not shown) [Example 6.11.1, 2-((2-ethyl-6-methylpyridin-3-yl)oxy)-1-(5-(2-fluoro-4-(trifluoromethyl)phenyl)-7,8-dihydrothiazolo-[2′,3′:2,3]imidazo[4,5-c]pyridin-6(5H)-yl)ethanone]
[1]
  IC50: 0.01 µM

## COC1(C)CN(c2ccc(OCC(=O)N3CCc4nc5sc(C)nn5c4[C@@H]3c3ncc(C)cc3F)c(Cl)n2)C1 [Example 1.31.11, (R)-2-((2-chloro-6-(3-methoxy-3-methylazetidin-1-yl)pyridin-3-yl)oxy)-1-(5-(3-fluoro-5-methylpyridin-2-yl)-2-methyl-7,8-dihydro-[1,3,4]thiadiazolo[2′,3′:2,3]imidazo[4,5-c]pyridin-6(5H)-yl)ethanone]
[1]
  IC50: 0.023 µM

## Cc1nn2c3c(nc2s1)CCN(C(=O)COc1cc(F)c(N2CCOCC2)nc1Cl)C3c1ncc(C2CC2)cc1F (stereo not shown) [Example 1.14.9, 2-((2-chloro-5-fluoro-6-morpholinopyridin-3-yl)oxy)-1-(5-(5-cyclopropyl-3-fluoropyridin-2-yl)-2-methyl-7,8-dihydro-[1,3,4]thiadiazolo[2′,3′:2,3]imidazo[4,5-c]pyridin-6(5H)-yl)ethanone]
[1]
  IC50: 0.004 µM

## CNC(=O)c1ccc(OCC(=O)N2CCc3nc4sccn4c3C2c2sccc2F)c(Cl)n1 (stereo not shown) [Example 6.8.3, 6-chloro-5-(2-(5-(3-fluorothiophen-2-yl)-7,8-dihydro-thiazolo[2′,3′:2,3]imidazo[4,5-c]pyridin-6(5H)-yl)-2-oxoethoxy)-N-methylpicolinamide]
[1]
  IC50: 0.009 µM

## Cc1nn2c3c(nc2s1)CCN(C(=O)COc1ccc(C(N)=O)nc1Cl)C3c1ncc(Cl)cc1F (stereo not shown) [Example 1.33.4, 6-chloro-5-(2-(5-(5-chloro-3-fluoropyridin-2-yl)-2-methyl-7,8-dihydro-[1,3,4]thiadiazolo[2′,3′:2,3]imidazo[4,5-c]pyridin-6(5H)-yl)-2-oxoethoxy)picolinamide]
[1]
  IC50: 0.007 µM

## COCc1ccc(C2c3c(nc4sc(C)nn34)CCN2C(=O)COc2ccc(C(=O)NC3CC3)nc2Cl)c(F)c1 (stereo not shown) [Example 1.82.2, 6-chloro-N-cyclopropyl-5-(2-(5-(2-fluoro-4-(methoxymethyl)phenyl)-2-methyl-7,8-dihydro-[1,3,4]thiadiazolo[2′,3′:2,3]imidazo[4,5-c]pyridin-6(5H)-yl)-2-oxoethoxy)picolinamide]
[1]
  IC50: 0.014 µM

## CCc1nc(C(=O)NC2CC2)ccc1OCC(=O)N1CCc2nc3sc(C)nn3c2C1c1sccc1F (stereo not shown) [Example 1.71.1, N-cyclopropyl-6-ethyl-5-(2-(5-(3-fluorothiophen-2-yl)-2-methyl-7,8-dihydro-[1,3,4]thiadiazolo[2′,3′:2,3]-imidazo[4,5-c]pyridin-6(5H)-yl)-2-oxoethoxy)picolinamide]
[1]
  IC50: 0.012 µM
